Experiment [1] concerns GL261 cells. Kind of experiment: Percent viability of GL261 cells treated with TMZ or iCHEK1/2. The experiment is classed as cell-based, mouse.
The test system of experiment [2] is GL261 cells. Description: Expression of MHC-I and PDL1 in GL261 cells. It is filed as cell-based, mouse. To be noted: 8 nM, 3 cycles (48 h/cycle), compared to TMZ or untreated.
Experiment [3] relates to GL261 cells. Kind of experiment: Western blot of DNA damage in GL261 cells. To be noted: 8 nM, 48 h of treatment, compared to TMZ or untreated GL261 cells. The experiment is classed as cell-based, mouse.
Experiment [4] concerns GL261 intracranial gliomas. Kind of experiment: PD1+ T cells in brain and spleen of GL261 intracranial tumor bearing mice by flow cytometry. To be noted: 10 mg/kg i.p. on 7th and 9th day, sacrificed on 13th day. The experiment is classed as in vivo, C57BL/6 mice.

Two compounds from patent US20210145965A1, “METHOD OF USING CHECKPOINT KINASE INHIBITOR THERAPY TO MODULATE ANTI-TUMORAL RESPONSE AGAINST CANCER AND SENSITIZE GLIOMAS TO IMMUNOTHERAPY” (NORTHWESTERN UNIVERSITY, priority 2019, published 2021) can be followed below.

SMILES strings stand for the structures.

Regarding `Cn1nnc2c(C(N)=O)ncn2c1=O` [TMZ, temozolomide], the “concentration leading to a decrease in viability of glioma cells” value in experiment [1] (treatment for 72 h) was determined as 500 µM.
In the case of `COc1cccc(OCCCN)c1-c1cc(Nc2cnc(C#N)cn2)n[nH]1` [iCHEK1/2, Prexasertib], the “expression of MHC-I (both MHC class and PDL1)” value in experiment [2] is “increased expression of MHC-I”. Also, in experiment [1], the “concentration at which viability of the GL261 cells started to be affected” value was “less than 0.08 nM”. In addition, the “DNA damage signal (western blot)” value in experiment [3] is “intense signal of DNA damage”. Also, the “activated T-cells pool in the peripheral compartment (spleen)” value in experiment [4] was “no significant difference”. Moreover, in experiment [4] (compared to TMZ or vehicle), the “percentage of PD1+ T cells in the brain” value is on record as “decrease in the percentage of PD1+ T cells”.
